# Results published in patent US9540343B2 (Gilead Sciences, Inc., priority 2011, dated 2017).
# Columns and labels:
# HIV-IIIb = assay: Test A: Antiviral assay in MT4 cells; format: cell-based, HIV-1; conditions: Human immunodeficiency virus 1, IIIB, MT4, 120 h, read-out: % inhibition at 2 μM, percent inhibition of virus-induced cell killing, from dose response curve at 2 uM drug; MT-4 cells infected with HIV-IIIb, 5 days, CellTiter-Glo
# in vitro = conditions: human, uninfected MT-4 cells, CC50 (nM), same protocol as Test A, CellTiter-Glo
# Summary of the method: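 Cytoprotection read-out: CellTiter-Glo chemiluminescence after 5 days at 37 °C of HIV-IIIb-infected MT-4 cells (m.o.i. 0.003) with compound in 10-point 3-fold dilutions, quadruplicate, 10% FBS. Cytotoxicity (CC50) measured identically without virus.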
SMILES,inhibition at 2 µM (HIV-IIIb) [%],CC50 at 5 days (in vitro) [nM]
"Cc1cc2nc(C(F)(F)F)n(CC(=O)N[C@@H](Cc3cc(F)cc(F)c3)c3ncccc3-c3ccc(F)c(C(N)=O)c3)c2cc1C [Example 319, (S)-5-(2-(2-(3,5-difluorophenyl)-1-(2-(5,6-dimethyl-2-(trifluoromethyl)-1H-benzo[d]imidazol-1-yl)acetamido)ethyl)pyridin-3-yl)-2-fluorobenzamide]",70,> 52500
"CC1(O)CCCc2c(C(F)F)nn(CC(=O)N[C@@H](Cc3cc(F)cc(F)c3)c3ncccc3-c3ccc(F)c(C(N)=O)c3)c21 (stereo partly drawn) [Example 349B, 5-(2-((1S)-1-(2-(3-(difluoromethyl)-7-hydroxy-7-methyl-4,5,6,7-tetrahydro-1H-indazol-1-yl)acetamido)-2-(3,5-difluorophenyl)ethyl)pyridin-3-yl)-2-fluorobenzamide]",94,40800
"Cc1[nH]nc(-c2ccccc2)c1CC(=O)N[C@@H](Cc1cc(F)cc(F)c1)c1ncccc1-c1ccc(F)c(C(N)=O)c1 [Example 184, (S)-5-(2-(2-(3,5-difluorophenyl)-1-(2-(5-methyl-3-phenyl-1H-pyrazol-4-yl)acetamido)ethyl)pyridin-3-yl)-2-fluorobenzamide]",5,43200
"COc1ccc(-c2cccnc2[C@H](Cc2ccccc2)NC(=O)Cc2c[nH]c3ccc(O)cc23)cc1 [Example 20, (S)-2-(5-hydroxy-1H-indol-3-yl)-N-(1-(3-(4-methoxyphenyl)pyridin-2-yl)-2-phenylethyl)acetamide]",84,48300
"COC1CN(C(=O)c2cc(C(C)C)nn2CC(=O)N[C@@H](Cc2cc(F)cc(F)c2)c2ncccc2-c2ccc(F)c(C(N)=O)c2)C1 [Example 598, (S)-5-(2-(2-(3,5-difluorophenyl)-1-(2-(3-isopropyl-5-(3-methoxyazetidine-1-carbonyl)-1H-pyrazol-1-yl)acetamido)ethyl)pyridin-3-yl)-2-fluorobenzamide]",3,> 53200
CC(C)c1cc(C(=O)O)nn1CC(=O)N[C@@H](Cc1cc(F)cc(F)c1)c1ncccc1-c1ccc(F)c(C(N)=O)c1 [Example 521],0,> 53200
"CNC(=O)c1cc(F)cc(-c2cccnc2[C@H](Cc2cc(F)cc(F)c2)NC(=O)Cc2c[nH]c3ccc(F)cc23)c1 [Example 63, (S)-3-(2-(2-(3,5-difluorophenyl)-1-(2-(5-fluoro-1H-indol-3-yl)acetamido)ethyl)pyridin-3-yl)-5-fluoro-N-methylbenzamide]",22,14800
"NC(=O)c1cc(-c2cccnc2[C@H](Cc2cc(F)cc(F)c2)NC(=O)[C@H]2CCC(=O)N2)ccc1F [Example 125, (R)—N—((S)-1-(3-(3-carbamoyl-4-fluorophenyl)pyridin-2-yl)-2-(3,5-difluorophenyl)ethyl)-5-oxopyrrolidine-2-carboxamide]",0,> 53000
"O=C(Cc1c[nH]c2ccc(=O)[nH]c12)N[C@@H](Cc1cc(F)cc(F)c1)c1ncncc1-c1ccc(Cl)cc1 [Example 331B, (S)—N-(1-(5-(4-chlorophenyl)pyrimidin-4-yl)-2-(3,5-difluorophenyl)ethyl)-2-(5-oxo-4,5-dihydro-1H-pyrrolo[3,2-b]pyridin-3-yl)acetamide]",99,43100
"O=C(Cn1cnc2c1CCCC2)N[C@@H](Cc1cc(F)cc(F)c1)c1ncccc1Br [Example 286, (S)—N-(1-(3-bromopyridin-2-yl)-2-(3,5-difluorophenyl)ethyl)-2-(4,5,6,7-tetrahydro-1H-benzo[d]imidazol-1-yl)acetamide]",0,25200
"CC(C(=O)N[C@@H](Cc1cc(F)cc(F)c1)c1ncccc1-c1ccc(F)c(C(N)=O)c1)n1ccc(C(F)(F)F)n1 (stereo partly drawn) [Example 507B, 5-(2-((1S)-2-(3,5-difluorophenyl)-1-(2-(3-(trifluoromethyl)-1H-pyrazol-1-yl)propanamido)ethyl)pyridin-3-yl)-2-fluorobenzamide]",22,> 45300
